According to patent publication US11542266B1, “Substituted piperidines as BTK inhibitors” (HAISCO PHARMACEUTICALS PTE. LTD., priority 2019, dated 2023):
Where a name gives a salt, the structure may show the parent alone.

test system: SU-DHL-4 cells; assay: Inhibition of cell proliferation, SU-DHL-4 cells (Cell Viability Assay, 72 h); format: cell-based, human; settings: Homo sapiens
Description: (§1) SU-DHL-4, Mino, and SU-DHL-6 cells, in the culture medium of RPMI1640+10% FBS, were cultured in an incubator at 37° C. under 5% CO2. Cells were plated in a 96-well plate. Specifically, SU-DHL-4 cells were at 20000/well, Mino and SU-DHL-6 cells were at 5000/well, with 90 μL/well. 10 μL of the compounds at different concentrations were added to each well. There were 3 replicate wells for each concentration, and the last column, added with DMSO, was used as a vehicle control group. The cultures were continued for 72 hours at 37° C. under 5% CO2. After 72 hours, 100 μL of detection reagent (Cell Viability Assay, Promega, G7573) was added to each well, and the cultures were uniformly mixed for 2 minutes, and incubated at room temperature for 10 minutes. The fluorescence signal value was measured with a microplate reader (PHERAstar FSX). The IC50 value of the compound on cell proliferation inhibition was calculated using Origin 9.2 software, and the inhibition rate at the highest concentration of the compound (Max inhi. %) was calculated according to formula (1). Max inhi. %=(1-T72 administration/T72 vehicle)×100 Formula (1).

Which IC50 does the source give for `Nc1ncnc2c1c(-c1ccc(Oc3ccccc3)cc1)nn2C1CCN(C2CN(C3CCN(C4CCN(C5CN(c6ccc7c(c6)C(=O)N(C6CCC(=O)NC6=O)C7=O)C5)CC4)CC3)C2)CC1` (stereo not drawn) [Compound 13, 5-[3-[4-[4-[3-[4-[4-amino-3-(4-phenoxyphenyl)pyrazolo[3,4-d]pyrimidin-1-yl]-1-piperidyl]azetidin-1-yl]-1-piperidyl]-1-piperidyl]azetidin-1-yl]-2-(2,6-dioxo-3-piperidyl)isoindoline-1,3-dione] here?
Its IC50 is 70 nM.

same assay, conditions: inhibition rate at the highest concentration of the compound

For `Nc1ncnc2c1c(-c1ccc(Oc3ccccc3)cc1)nn2[C@@H]1CCCN(C2CCC(N3CC(Oc4ccc5c(c4)C(=O)N(C4CCC(=O)NC4=O)C5=O)C3)CC2)C1` (single isomer, unassigned) [Compound 34-a], which “SU-DHL-4 Max inhi. %” value is on record?
Its value is 94.4%.

Which “SU-DHL-4 Max inhi. %” value does the source give for `Nc1ncnc2c1c(-c1ccc(Oc3ccccc3)cc1)nn2[C@@H]1CCCN(C2CCC(N3CC(Oc4ccc5c(c4)C(=O)N(C4CCC(=O)NC4=O)C5=O)C3)CC2)C1` (single isomer, unassigned) [Compound 34-b] here?
The value was 99.2%.

For `Nc1ncnc2c1c(-c1ccc(Oc3ccccc3)cc1)nn2C1CCN(C2CCC(N3CC(Oc4ccc5c(c4)C(=O)N(C4CCC(=O)NC4=O)C5=O)C3)CC2)CC1` (stereo not drawn) [Compound 36-a, 5-[1-[4-[4-[4-amino-3-(4-phenoxyphenyl)pyrazolo[3,4-d]pyrimidin-1-yl]-1-piperidyl]cyclohexyl]azetidin-3-yl]oxy-2-(2,6-dioxo-3-piperidyl)isoindoline-1,3-dione], which “SU-DHL-4 Max inhi. %” value is on record?
Its value is 99.6%.

same assay, conditions: inhibition rate at the highest concentration of the compound, trifluoroacetate

For `Nc1ncnc2c1c(-c1ccc(Oc3ccccc3)cc1)nn2C1CCN(C2CCC(N3CC(Oc4ccc5c(c4)C(=O)N(C4CCC(=O)NC4=O)C5=O)C3)CC2)CC1` (stereo not drawn) [Compound 36-b, 5-[1-[4-[4-[4-amino-3-(4-phenoxyphenyl)pyrazolo[3,4-d]pyrimidin-1-yl]-1-piperidyl]cyclohexyl]azetidin-3-yl]oxy-2-(2,6-dioxo-3-piperidyl)isoindoline-1,3-dione trifluoroacetate], which “SU-DHL-4 Max inhi. %” value is on record?
The value was 99.8%.

test system: not listed separately; assay: Pharmacokinetic experiment in rats (i.g. vehicle 0.5% MC); format: in vivo; settings: Sprague-Dawley (SD), rat, po; male SD rats, plasma, i.g. 20 mg/kg, vehicle 0.5% MC; read-out: AUC0-t
Description: Objective: In this experiment, a single dose of each test compound was administered to SD rats intravenously and intragastrically, the concentrations of the test compound in plasma of rats were measured, and the pharmacokinetic characteristics and bioavailability of the test compound in rats were evaluated.
Experimental animals: Male SD rats, 200-250 g, 6-8 weeks old, 6 rats/test compound. The experimental animals were purchased from CHENGDU DOSSY EXPERIMENTAL ANIMALS CO., LTD.
Experimental method: On the day of the experiment, 6 SD rats were randomly grouped according to their body weight. The animals were fasted with water available for 12 to 14 hours one day before the administration of a test compound, and were fed 4 hours after the administration.
Sampling: Before and after the administration, 0.1 ml of blood was taken from the orbit of the rats under isoflurane anesthesia, and placed in an EDTAK2 centrifuge tube. Centrifugation was carried out at 5000 rpm at 4° C. for 10 min and the plasma was collected.
Time points for plasma collection in G1 group: 0, 5 m, 15 m, 30 m, 1 h, 2 h, 4 h, 6 h, 8 h, and 24 h.
Time points for plasma collection in G2 group: 0, 15 m, 30 m, 1 h, 2 h, 4 h, 6 h, 8 h, and 24 h.
Before analysis and detection, all samples were stored at −80° C. The samples were analyzed quantitatively by LC-MS/MS.

Which AUC(0-t) does the source give for `Nc1ncnc2c1c(-c1ccc(Oc3ccccc3)cc1)nn2C1CCN(c2cnc(N3CCC4(CC3)CN(c3ccc5c(c3)C(=O)N(C3CCC(=O)NC3=O)C5=O)C4)nc2)CC1` (stereo not drawn) [Compound 5, 5-[7-[5-[4-[4-amino-3-(4-phenoxyphenyl)pyrazolo[3,4-d]pyrimidin-1-yl]-1-piperidyl]pyrimidin-2-yl]-2,7-diazaspiro[3.5]nonan-2-yl]-2-(2,6-dioxo-3-piperidyl)isoindoline-1,3-dione] here?
Its AUC(0-t) is 81.7 ± 68 ng·h/mL.

test system: Mino cells; assay: Inhibition of cell proliferation, Mino cells (Cell Viability Assay, 72 h); format: cell-based, human; settings: Homo sapiens
Description: as §1

For `Nc1ncnc2c1c(-c1ccc(Oc3ccccc3)cc1)nn2C1CCN(C2CN(C3CCN(C4CCN(C5CN(c6ccc7c(c6)C(=O)N(C6CCC(=O)NC6=O)C7=O)C5)CC4)CC3)C2)CC1` (stereo not drawn) [Compound 13, 5-[3-[4-[4-[3-[4-[4-amino-3-(4-phenoxyphenyl)pyrazolo[3,4-d]pyrimidin-1-yl]-1-piperidyl]azetidin-1-yl]-1-piperidyl]-1-piperidyl]azetidin-1-yl]-2-(2,6-dioxo-3-piperidyl)isoindoline-1,3-dione], which IC50 is on record?
The IC50 was 677 nM.

Which IC50 does the source give for `Nc1ncnc2c1c(-c1ccc(Oc3ccccc3)cc1)nn2C1CCN(C2CN(C3CCC4(CC3)CN(c3ccc5c(c3)C(=O)N(C3CCC(=O)NC3=O)C5=O)C4)C2)CC1` (stereo not drawn) [Compound 54, 5-(7-(3-(4-(4-amino-3-(4-phenoxyphenyl)-1H-pyrazolo[3,4-d]pyrimidin-1-yl)piperidin-1-yl)azetidin-1-yl)-2-azaspiro[3.5]nonan-2-yl)-2-(2,6-dioxopiperidin-3-yl)isoindoline-1,3-dione] here?
The IC50 was 200 nM.

With `Nc1ncnc2c1c(-c1ccc(Oc3ccccc3)cc1)nn2C1CCN(C2CN(C3C[C@@H]4CN(c5ccc6c(c5)C(=O)N(C5CCC(=O)NC5=O)C6=O)C[C@@H]4C3)C2)CC1` (stereo partly drawn) [Compound 61, 5-((3aR,6aS)-5-(3-(4-(4-amino-3-(4-phenoxyphenyl)-1H-pyrazolo[3,4-d]pyrimidin-1-yl)piperidin-1-yl)azetidin-1-yl)hexahydrocyclopenta[c]pyrrol-2(1H)-yl)-2-(2,6-dioxopiperidin-3-yl)isoindoline-1,3-dione] as the compound, how does the IC50 read?
The IC50 was 100 nM.

Which IC50 does the source give for `Nc1ncnc2c1c(-c1ccc(Oc3ccccc3)cc1)nn2C1CCN(C2CCN(C3CN(c4ccc5c(c4)CN(C4CCC(=O)NC4=O)C5=O)C3)CC2)CC1` (stereo not drawn) [Compound 25, 3-[5-[3-[4-[4-[4-amino-3-(4-phenoxyphenyl)pyrazolo[3,4-d]pyrimidin-1-yl]-1-piperidyl]-1-piperidyl]azetidin-1-yl]-1-oxo-isoindolin-2-yl]piperidine-2,6-dione] here?
The IC50 was 282 nM.

For `Nc1ncnc2c1c(-c1ccc(Oc3ccccc3)cc1)nn2C1CCN(C2CN(C3CCN(c4ccc5c(c4)C(=O)N(C4CCC(=O)NC4=O)C5=O)CC3)C2)CC1` (stereo not drawn) [Compound 23, 5-[4-[3-[4-[4-amino-3-(4-phenoxyphenyl)pyrazolo[3,4-d]pyrimidin-1-yl]-1-piperidyl]azetidin-1-yl]-1-piperidyl]-2-(2,6-dioxo-3-piperidyl)isoindoline-1,3-dione], which IC50 is on record?
Its IC50 is 295 nM.

With `Nc1ncnc2c1c(-c1ccc(Oc3ccccc3)cc1)nn2C1CCN(C2CCN(C3CN(c4ccc5c(c4)C(=O)N(C4CCC(=O)NC4=O)C5=O)C3)C2)CC1` (stereo not drawn) [Compound 24, 5-[3-[3-[4-[4-amino-3-(4-phenoxyphenyl)pyrazolo[3,4-d]pyrimidin-1-yl]-1-piperidyl]pyrrolidin-1-yl]azetidin-1-yl]-2-(2,6-dioxo-3-piperidyl)isoindoline-1,3-dione] as the compound, how does the IC50 read?
Its IC50 is 629 nM.

same assay, conditions: inhibition rate at the highest concentration of the compound

For `Nc1ncnc2c1c(-c1ccc(Oc3ccccc3)cc1)nn2C1CCN(C2CCC3(CC2)CN(C2CN(c4ccc5c(c4)C(=O)N(C4CCC(=O)NC4=O)C5=O)C2)C3)CC1` (stereo not drawn) [Compound 56, 5-(3-(7-(4-(4-amino-3-(4-phenoxyphenyl)-1H-pyrazolo[3,4-d]pyrimidin-1-yl)piperidin-1-yl)-2-azaspiro[3.5]nonan-2-yl)azetidin-1-yl)-2-(2,6-dioxopiperidin-3-yl)isoindoline-1,3-dione], which “Mino Max inhi. %” value is on record?
The value was 99.9%.

Which “Mino Max inhi. %” value does the source give for `Nc1ncnc2c1c(-c1ccc(Oc3ccccc3)cc1)nn2C1CCN(C2C[C@@H]3CN(C4CC5(CCN(c6ccc7c(c6)C(=O)N(C6CCC(=O)NC6=O)C7=O)CC5)C4)C[C@@H]3C2)CC1` (stereo partly drawn) [Compound 52, 5-(2-((3aR,6aS)-5-(4-(4-amino-3-(4-phenoxyphenyl)-1H-pyrazolo[3,4-d]pyrimidin-1-yl)piperidin-1-yl)hexahydrocyclopenta[c]pyrrol-2(1H)-yl)-7-azaspiro[3.5]nonan-7-yl)-2-(2,6-dioxopiperidin-3-yl)isoindoline-1,3-dione] here?
The value was 99.7%.

With `Nc1ncnc2c1c(-c1ccc(Oc3ccccc3)cc1)nn2C1CCN(C2C[C@@H]3CN(C4C[C@@H]5CN(c6ccc7c(c6)C(=O)N(C6CCC(=O)NC6=O)C7=O)C[C@@H]5C4)C[C@@H]3C2)CC1` (stereo partly drawn) [Compound 53, 5-((3aR,3′aR,6aS,6′aS)-5-(4-(4-amino-3-(4-phenoxyphenyl)-1H-pyrazolo[3,4-d]pyrimidin-1-yl)piperidin-1-yl)dodecahydro-1H-[2,5′-bi(cyclopenta[c]pyrrol)]-2′(1′H)-yl)-2-(2,6-dioxopiperidin-3-yl)isoindoline-1,3-dione trifluoroacetate] as the compound, how does the “Mino Max inhi. %” value read?
Its value is 99.6%.

With `NC(=O)c1c(-c2ccc(Oc3ccccc3)cc2)nn2c1NCC[C@H]2C1CCN(C2CCN(C3CN(c4ccc5c(c4)C(=O)N(C4CCC(=O)NC4=O)C5=O)C3)CC2)CC1` (stereo partly drawn) [Compound 30, (7S)-7-[1-[1-[1-[2-(2,6-dioxo-3-piperidyl)-1,3-dioxo-isoindolin-5-yl]azetidin-3-yl]-4-piperidyl]-4-piperidyl]-2-(4-phenoxyphenyl)-4,5,6,7-tetrahydropyrazolo[1,5-a]pyrimidine-3-carboxamide trifluoroacetate] as the compound, how does the “Mino Max inhi. %” value read?
The value was 82.5%.

Which “Mino Max inhi. %” value does the source give for `Nc1ncnc2c1c(-c1ccc(Oc3ccccc3)cc1)nn2C1CCN(C2CN(C3CN(c4ccc5c(c4)CN(C4CCC(=O)NC4=O)C5=O)C3)C2)CC1` (stereo not drawn) [Compound 26, 3-[5-[3-[3-[4-[4-amino-3-(4-phenoxyphenyl)pyrazolo[3,4-d]pyrimidin-1-yl]-1-piperidyl]azetidin-1-yl]azetidin-1-yl]-1-oxo-isoindolin-2-yl]piperidine-2,6-dione] here?
Its value is 74.3%.

With `NC(=O)c1c(-c2ccc(Oc3ccccc3)cc2)nn2c1NCC[C@H]2C1CCN(C2CN(C3CN(c4ccc5c(c4)C(=O)N(C4CCC(=O)NC4=O)C5=O)C3)C2)CC1` (stereo partly drawn) [Compound 31, (7S)-7-[1-[1-[1-[2-(2,6-dioxo-3-piperidyl)-1,3-dioxo-isoindolin-5-yl]azetidin-3-yl]azetidin-3-yl]-4-piperidyl]-2-(4-phenoxyphenyl)-4,5,6,7-tetrahydropyrazolo[1,5-a]pyrimidine-3-carboxamide trifluoroacetate] as the compound, how does the “Mino Max inhi. %” value read?
The value was 78.3%.
